Measurements reported in patent US20050234065A1, “Dipeptidyl peptidase-IV inhibitors” (Pfizer Inc, priority 2004, published 2005).
Like-named read-outs stand apart in the source and are kept apart here.

Target: T1, DPP-IV (Homo sapiens, UniProt P27487)
T1 construct: purchased Enzyme Systems Products SPE-01
Assay: In vitro assay for dipeptidyl peptidase inhibition
Assay type: biochemical
Conditions: hydrochloride salts, Gly-Pro-4-methoxy B naphthylamide substrate, overnight at 37° C.
Experimental: 150 μL of an enzyme-substrate solution was pipetted into microtiter wells of a polystyrene 96-well plate, and maintained at 4° C. The enzyme-substrate solution comprised 50 μM Gly-Pro-4-methoxy B naphthylamide HCl in 50 mM Tris assay buffer pH 7.3 containing 0.1M sodium chloride, 0.1% (v/v) Triton and 50 μU/mL DPP-IV (Enzyme Systems Products Cat#SPE-01, DPP-IV 5 mU/mL stock). 5 μL/well of compounds of Formula (I) were added, bringing the final compound of Formula (I) concentrations to 3 μM-10 nM per well.
Controls. Enzyme was omitted from four (4) wells, as a reagent blank. 5 μL of 3 mM Diprotin A was added to four wells as a positive quality control, providing a final Diprotin A concentration of 100 μM. To measure total enzyme activity (i.e. a negative control), without the influence of any compounds of Formula (I), 5 μL of distilled water was added to four wells.
The entire assay was incubated overnight (about 14-18 hours) at 37° C.

[1] = read-out: IC50 (concentration of test compound required for 50% inhibition)

T1 sequence (P27487 whole entry, species assumed): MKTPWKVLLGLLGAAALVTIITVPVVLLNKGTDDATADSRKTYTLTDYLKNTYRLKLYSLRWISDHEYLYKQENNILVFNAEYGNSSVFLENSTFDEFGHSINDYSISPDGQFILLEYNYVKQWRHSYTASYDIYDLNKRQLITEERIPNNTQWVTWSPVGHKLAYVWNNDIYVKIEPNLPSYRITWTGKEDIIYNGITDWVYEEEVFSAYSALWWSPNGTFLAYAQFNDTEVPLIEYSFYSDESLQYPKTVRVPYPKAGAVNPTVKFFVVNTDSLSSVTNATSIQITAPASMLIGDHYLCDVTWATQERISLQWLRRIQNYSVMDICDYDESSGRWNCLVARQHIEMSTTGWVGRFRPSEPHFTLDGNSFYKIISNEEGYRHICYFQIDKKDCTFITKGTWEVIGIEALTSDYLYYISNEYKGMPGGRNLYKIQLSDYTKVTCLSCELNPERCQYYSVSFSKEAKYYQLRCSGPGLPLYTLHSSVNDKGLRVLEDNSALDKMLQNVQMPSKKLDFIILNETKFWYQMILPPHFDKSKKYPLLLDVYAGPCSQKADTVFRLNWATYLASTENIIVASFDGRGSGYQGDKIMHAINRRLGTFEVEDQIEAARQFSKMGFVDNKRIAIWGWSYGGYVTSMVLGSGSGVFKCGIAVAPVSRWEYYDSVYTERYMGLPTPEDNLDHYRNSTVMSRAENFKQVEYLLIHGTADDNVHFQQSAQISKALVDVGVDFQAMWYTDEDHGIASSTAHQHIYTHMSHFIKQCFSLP

Row | IC50 [1] | Compound | IC50 (IC50 (concentration of test compound required for 50% inhibition))
1 | 100 to 500 nM | CN(CC(=O)N[C@H]1CC[C@H]([C@H](N)C(=O)N2CCCC2)CC1)C(=O)OCc1ccccc1 [Example 34, (S)-{[trans-4-(1-amino-2-oxo-2-pyrrolidin-1-yl-ethyl)-cyclohexylcarbamoyl]-methyl}-methyl-carbamic acid benzyl ester] | –
2 | ≤ 100 nM | CN(CC(=O)N[C@H]1CC[C@H]([C@H](N)C(=O)N2CCC[C@H]2C#N)CC1)C(=O)OCc1ccccc1 [Example 37, ({trans-4-[(1S)-1-amino-2-((2S)-2-cyano-pyrrolidin-1-yl)-2-oxo-ethyl]-cyclohexylcarbamoyl}-methyl)-methyl-carbamic acid benzyl ester] | –
3 | ≤ 100 nM | Nc1ncccc1C(=O)N[C@H]1CC[C@H]([C@H](N)C(=O)N2CCSC2)CC1 [Example 39, (S)-2-amino-N-[trans-4-(1-amino-2-oxo-2-thiazolidin-3-yl-ethyl)-cyclohexyl]-nicotinamide] | –
4 | ≤ 100 nM | N[C@H](C(=O)N1CCC(F)(F)C1)[C@H]1CC[C@H](N2Cc3ncccc3C2=O)CC1 [Example 45, 6-{trans-4-[(1S)-1-amino-2-(3,3-difluoro-pyrrolidin-1-yl)-2-oxo-ethyl]-cyclohexyl}-6,7-dihydro-pyrrolo[3,4-b]pyridin-5-one] | –
5 | ≤ 100 nM | N[C@H](C(=O)N1CCCC1)[C@H]1CC[C@H](N2Cc3nccnc3C2=O)CC1 [Example 46, 6-[trans-4-((1S)-1-amino-2-oxo-2-pyrrolidin-1-yl-ethyl)-cyclohexyl]-6,7-dihydro-pyrrolo[3,4-b]pyrazin-5-one] | –

Continued, compound first:

Row | Compound | IC50 [1] | IC50 (IC50 (concentration of test compound required for 50% inhibition))
6 | Nc1nccnc1C(=O)N[C@H]1CC[C@H]([C@H](N)C(=O)N2CCC(F)(F)C2)CC1 [Example 32, (S)-3-amino-pyrazine-2-carboxylic acid {trans-4-[1-amino-2-(3,3-difluoro-pyrrolidin-1-yl)-2-oxo-ethyl]-cyclohexyl}-amide] | ≤ 100 nM | –
7 | CN(CC(=O)N[C@H]1CC[C@H]([C@H](N)C(=O)N2CCC(F)(F)C2)CC1)C(=O)Oc1ccccc1 [Example 33, ({trans-4-[(1S)-1-amino-2-(3,3-difluoro-pyrrolidin-1-yl)-2-oxo-ethyl]-cyclohexylcarbamoyl}-methyl)-methyl-carbamic acid phenyl ester] | – | ≤ 100 nM
8 | N#C[C@@H]1CCCN1C(=O)[C@@H](N)[C@H]1CC[C@H](NC(=O)c2nccnc2N)CC1 [Example 36, 3-amino-pyrazine-2-carboxylic acid {trans-4-[(1S)-1-amino-2-((2S)-2-cyano-pyrrolidin-1-yl)-2-oxo-ethyl]-cyclohexyl}-amide] | ≤ 100 nM | –
9 | Nc1ncccc1C(=O)N[C@H]1CC[C@H]([C@H](N)C(=O)N2CCCC2)CC1 [Example 38, (S)-2-amino-N-[trans-4-(1-amino-2-oxo-2-pyrrolidin-1-yl-ethyl)-cyclohexyl]-nicotinamide] | ≤ 100 nM | –
10 | N[C@H](C(=O)N1CCCC1)[C@H]1CC[C@H](N2Cc3sccc3C2=O)CC1 [Example 41, 5-[trans-4-((1S)-1-amino-2-oxo-2-pyrrolidin-1-yl-ethyl)-cyclohexyl]-5,6-dihydro-thieno[2,3-c]pyrrol-4-one] | ≤ 100 nM | –
11 | N[C@H](C(=O)N1CCCC1)[C@H]1CC[C@H](N2Cc3ncccc3C2=O)CC1 [Example 42, 6-[trans-4-((1S)-1-amino-2-oxo-2-pyrrolidin-1-yl-ethyl)-cyclohexyl]-6,7-dihydro-pyrrolo[3,4-b]pyridin-5-one] | ≤ 100 nM | –
12 | N[C@H](C(=O)N1CCSC1)[C@H]1CC[C@H](N2Cc3ncccc3C2=O)CC1 [Example 43, 6-[trans-4-((1S)-1-amino-2-oxo-2-thiazolidin-3-yl-ethyl)-cyclohexyl]-6,7-dihydro-pyrrolo[3,4-b]pyridin-5-one] | ≤ 100 nM | –
13 | N#C[C@@H]1CCCN1C(=O)[C@@H](N)[C@H]1CC[C@H](N2Cc3ncccc3C2=O)CC1 [Example 44, 1-{(1S)-amino-[trans-4-(5-oxo-5,7-dihydro-pyrrolo[3,4-b]pyridin-6-yl)-cyclohexyl]-acetyl)-(2S)-pyrrolidine-2-carbonitrile] | ≤ 100 nM | –
